# From patent US20190022239A1, “NOVEL BIOMOLECULE CONJUGATES AND USES THEREFOR” (The University of Western Australia, priority 2016, published 2019)
# Entries after “also recorded” stand apart in the source; their conditions may differ.
# Experiments:
# atherosclerotic plaque = experiment: TNFα-CSG therapy of aging ApoE null mice; settings: for ALT / AST / Troponin: plasma, median (interquartile range)
# Method: Aging ApoE null mice were treated with 10 μg TNFα-CSG or 0.8 μg CSG peptide daily for five days by intravenous injection. Tissue, including aorta and plasma, were collected from euthanised animals at 70 weeks of age. Plasma samples were collected after 1 and 10 weeks of therapy and assessed for markers of (i) circulating cholesterol (total cholesterol, HDL and LDL), (ii) cardiac necrosis (troponin) and (iii) liver damage (alanine transaminase, ALT and aspartate transaminase, AST).
# hepatocellular carcinoma = experiment: Immune cell infiltration in hepatocellular carcinoma (FACS); format: in vivo, mice; settings: 2 μg daily i.v. for 5 days, healthy livers
# Method: Mice bearing hepatocellular carcinoma at 10 weeks of age were treated with 2 μg TNFα-CSG or control CSG peptide (in 100 μL) by daily intravenous injection for 5 days. The experiment was also conducted on mice with normal, healthy livers, FACS quantification of CD4+ and CD8+ T cells and infiltrating macrophages (CD11b+/CD68+) in whole tumours is shown in FIG. 7. Quantitative analysis of these tumours show at least 3 fold increase in immune cell infiltration compared to CSG-treated tumours (P<0.05).
# advanced insulinoma = experiment: Survival of mice bearing advanced insulinoma; format: in vivo; settings: 5 μg daily i.v. for five days at 24 weeks of age
# Method: Survival studies were conducted using mice bearing advanced insulinoma, at 24 weeks of age, treated with 5 μg TNFα-CSG or 0.8 μg CSG daily for five days by intravenous injection.
# 4T1 breast carcinoma = experiment: Tumour uptake of doxorubicin-micelles; format: in vivo, mice; settings: 2 μg i.v. daily for 5 days, then 100 μL of 1 mM doxorubicin-micelles
# Method: 4T1 breast carcinoma-bearing mice were treated with 2 μg TNFα-CSG or CSG control, peptide by intravenous injection, daily for 5 days. Mice were then injected with 100 μL of 1 mM doxorubicin-micelles (200 nm in size) and tissues including tumours, spleen and liver were collected for analysis.
substance,measurement,setting,value
TNFα-CSG: Mature murine TNFα (SEQ ID NO:6) with C-terminal conjugated peptide CSGRRSSKC connected via a GGG linker; recombinant fusion protein,plaque burden (plaque positive area),atherosclerotic plaque; 10 μg daily i.v. for five days,significantly reduced plaque burden
same,circulating HDL levels,atherosclerotic plaque; 10 weeks after administration,increase in circulating HDL levels; also recorded: significantly increased
same,circulating LDL,atherosclerotic plaque; 10 weeks after administration,reduction in LDL
same,plasma LDL:HDL ratio,atherosclerotic plaque; 10 weeks after therapy,reduced
same,plasma LDL:HDL ratio,atherosclerotic plaque; after 1 week of therapy,increased
same,"activated endothelia (CD31+, endoglin+) in plaque intima","atherosclerotic plaque; mouse, in vivo",increased the expression of activate endothelia
same,macrophage content (CD11b+) in plaque,"atherosclerotic plaque; mouse, in vivo",reduced macrophage content
same,"ECM in plaque intima (collagen I, collagen IV, laminin)","atherosclerotic plaque; mouse, in vivo, iv",degraded ECM in plaque intima
same,cardiac or liver toxicity,"atherosclerotic plaque; plasma troponin, ALT, AST",did not elevate cardiac or liver toxicity
same,ALT,atherosclerotic plaque; 1 week,33.3 (15.4-115.5) U/L
same,AST,atherosclerotic plaque; 1 week,106 (74.0-195.5) U/L
same,Troponin,atherosclerotic plaque; 1 week,15.3 (10.7-30.2) ng/L
same,ALT,atherosclerotic plaque; 10 weeks,26.0 (18.5-79.8) U/L
same,AST,atherosclerotic plaque; 10 weeks,81.5 (52.3-184.3) U/L
same,Troponin,atherosclerotic plaque; 10 weeks,15.1 (5.7-24.0) ng/L
same,effect on immune cell infiltration in normal liver,hepatocellular carcinoma,no effect on normal liver
same,survival compared to CSG-treated mice,advanced insulinoma,significantly enhanced
same,doxorubicin (autofluorescence) in treated tumours,4T1 breast carcinoma,strong traces of doxorubicin
